Assay results as given in patent publication US20250084074A1, “SUBSTITUTED HETEROCYCLES AS HSET INHIBITORS” (MERCK PATENT GMBH, priority 2022, published 2025).

molecular target: HSET full length protein (Homo sapiens (Human), UniProt Q9BW19); experiment: HSET ADP-Glo Assay S - 3 μM ATP; type: biochemical; settings: 5 nM HSET, 70 μg/mL microtubule, 80 min at rt, read-out: COMBINED HSET ADP GLO IC50
Method: Example 281: Testing compounds of the present invention for inhibitory activities against HSET—HSET ADP-Glo Assay S—3 μM ATP
Reagents: (+4° C. Storage) • Paclitaxel Prod.No.TXD.01 2 mM in DMSO (from Universal Biologicals Cambridge). • Tubulin Protein (Pre-formed Microtubules): Bovine Brain Prod.No.MT001-XL Lot.025 10 mg/mL (from Universal Biologicals Cambridge).
Reagents: (−80° C. Storage) • MT001-XL—Tubulin Protein (Pre-formed Microtubules): Bovine Brain—reconstituted in buffer—15 mM PIPES pH7, 1 mM MgCl2, 20 μM paclitaxel (aliquots at 10 mg/mL) from Universal Biologicals Cambridge. • HSET full length protein—Current batch is FL HSET Prep1 (SEQ-000096_002-01_01) • Buffer is 20 mM Hepes pH 7.5, 200 mM NaCl, 2 mM TCEP, 5% glycerol (5 μL aliquots at 10.2 μM)
Reagents: (−20° C. Storage) • ADP-Glo Kinase Assay kit (Promega Prod.No.V9102) 10,000 assay points • ADP-Glo reagent (50 mL), Kinase Detection Reagent (100 mL), and Ultrapure ATP (10 mM) aliquoted
Buffer Stocks (filtered and stored at rt for up to 1 month) • HEPES acid, 4-(2-Hydroxyethyl)piperazine-1-ethanesulfonic acid MW:238, 238.3 mg/mL=1 M • 7149 mg/30 mL=1M (pH to 6.8 with 5 M NaOH) • PIPES, 1,4-Piperazinediethanesulfonic acid MW: 302.4, 30.24 mg/mL=100 mM; 907.2 mg/30 mL=100 mM (pH to 7 with 5 M NaOH, white cloudy suspension until the pH changes) • EGTA, Ethylene glycol-bis(2-aminoethylether)-N,N,N′,N′-tetraacetic acid MW: 380.35, 38.035 mg/mL=100 mM • 1901.75 mg/50 mL=100 mM (pH to ˜7 with 5 M NaOH)—takes a long time to get into solution and for pH to stabilize • Triton-X-100, MW: 625, 62.5 mg/mL=100 mM (6.25% w/v) (viscous, pipette Triton X-100 with a Gilson using a trimmed pipette tip)
ECHO Protocol • Create an ECHO intermediate plate by adding 24.5 μL DMSO to columns 1 & 2, and 40 μL DMSO to columns 23 & 24 of an ECHO 384PP plate • Add 100 nL of compound/DMSO per well in 384-well Proxi-Plate Plus (white) —Perkin Elmer Cat #6008289 using ECHO dose response protocol 100 nL normal to proxi_8pt_200 uM.
Assay buffer (Keep on ice): HEPES pH 6.8, MgCl2, EGTA, Triton X-100, DTT, HPLC H2O Microtubule Working Solution (3.2): • 1 ml PM buffer: PIPES pH 7.0, MgCl2, HPLC H2O, Paclitaxel, mix well, store at rt • Then add 26.4 μL of 10 mg/ml microtubules to 724 μL of the above PM buffer to make 750 μL of microtubule working solution @350 μg/mL microtubules (store at rt)
Stock HSET enzyme solution (3.1)—keep on ice • Add 1.33 μL 10.2 μM HSET Prepi (SEQ-000096_002-01_01) to 1358 μL assay buffer to make a 10 nM stock for a 5 nM final assay concentration (1/1020 dilution).
HSET/Microtubule working solution (3.3) • Mix solutions 3.1 and 3.2 in the ratio of 2.5:1 (1214.3 μL 3.1+485.7 μL 3.2) keep at rt for 15 min • 3.2 is diluted 3.5-fold, 3.1 is diluted 1.4-fold BLANK solution is 357 μL 2XAB+143 μL microtubule working solution 3.2. (Same proportions as HSET/Microtubule working solution (3.3))
ATP Working solution is 1 μL 10 mM UltraPure ATP (Promega kit)+999 μL ddH20 gives 10 μM ATP for a 3 μM final assay concentration, stored on ice.
Assay procedure in PROXIPLATE 384 PLUS WHITE (Perkin Elmer) plates (Remove 2.4 mL ADP Glo and 4.5 mL Kinase detection reagent from freezer to warm up to rt) • Add 3.5 μL BLANK solution to assay plate (column 12) • Add 3.5 μL HSET/Microtubule solution (3.3) (columns 1-11 & 13-24) • Centrifuge at 1000 rpm for 1 min • (pre-incubate enzyme and compound for 10 min)
Add 1.5 μL of 10 μM ATP to start reaction gives a final [HSET] of 5 nM, [ATP] of 3 μM and [microtubule] of 70 μg/mL, centrifuge at 1000 rpm for 1 min and incubated at rt for 80 min.
After the 80-minute incubation, stop reaction by adding 5 μL ADP-Glo reagent to all wells. Centrifuge for 1 min at 1000 rpm, leave for 40 min at rt.
In the dark/away from direct light, add 10 μL Kinase Detection Reagent (KDR) to all wells, Seal plate with a Topseal (Perkin Elmer Cat #6050185) and centrifuge as above, leave for 40 min at rt covered in foil. […]

HSET full length protein, sequence (Q9BW19 whole entry): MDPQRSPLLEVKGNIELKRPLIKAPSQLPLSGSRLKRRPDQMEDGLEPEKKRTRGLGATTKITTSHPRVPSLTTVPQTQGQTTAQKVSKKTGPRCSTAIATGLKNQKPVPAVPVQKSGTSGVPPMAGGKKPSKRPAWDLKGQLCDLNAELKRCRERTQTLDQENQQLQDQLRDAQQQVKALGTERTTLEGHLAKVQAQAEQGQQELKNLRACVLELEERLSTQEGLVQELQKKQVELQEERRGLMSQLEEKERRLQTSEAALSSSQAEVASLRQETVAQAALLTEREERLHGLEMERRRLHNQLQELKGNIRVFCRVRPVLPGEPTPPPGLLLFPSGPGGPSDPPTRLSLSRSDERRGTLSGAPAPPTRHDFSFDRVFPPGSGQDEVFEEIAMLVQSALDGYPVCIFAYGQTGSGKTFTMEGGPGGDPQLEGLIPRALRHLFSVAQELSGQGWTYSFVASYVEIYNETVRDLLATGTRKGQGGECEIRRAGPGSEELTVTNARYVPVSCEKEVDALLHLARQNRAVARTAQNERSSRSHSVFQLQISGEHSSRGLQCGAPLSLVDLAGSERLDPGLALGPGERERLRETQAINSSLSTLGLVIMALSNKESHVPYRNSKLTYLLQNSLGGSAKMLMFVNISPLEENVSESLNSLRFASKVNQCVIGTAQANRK

Row | SMILES | IC50
1 | CCOC(=O)c1sc(NC(=O)CCNC(=O)c2cccc(-c3ncon3)c2)nc1C [Example 23, Ethyl 2-(3-(3-(1,2,4-oxadiazol-3-yl)benzamido)propanamido)-4-methylthiazole-5-carboxylate] | 146 nM
2 | CCOC(=O)c1sc(NC(=O)CCNC(=O)c2cc(Cl)cc(-c3noc(C)n3)c2)nc1C [Example 24, Ethyl 2-(3-(3-chloro-5-(5-methyl-1,2,4-oxadiazol-3-yl)benzamido)-propanamido)-4-methylthiazole-5-carboxylate] | 55 nM
3 | CCCOC(=O)c1sc(NC(=O)CCNC(=O)c2cc(Cl)cc(-c3noc(C)n3)c2)nc1C [Example 25, Propyl 2-(3-(3-chloro-5-(5-methyl-1,2,4-oxadiazol-3-yl)benzamido)propanamido)-4-methylthiazole-5-carboxylate] | 13 nM
4 | CCCOC(=O)c1sc(NC(=O)CCNC(=O)c2cc(C)cc(-c3noc(C)n3)c2)nc1C [Example 26, Propyl 4-methyl-2-(3-(3-methyl-5-(5-methyl-1,2,4-oxadiazol-3-yl)benzamido)propanamido)thiazole-5-carboxylate] | 13 nM
5 | CCCOC(=O)c1cc(NC(=O)CCNC(=O)c2cc(C)cc(-c3noc(C)n3)c2)nn1C [Example 27, Propyl 1-methyl-3-(3-(3-methyl-5-(5-methyl-1,2,4-oxadiazol-3-yl)benzamido)propanamido)-1 H-pyrazole-5-carboxylate] | 116 nM
6 | CCCOC(=O)c1sc(NC(=O)CCNC(=O)c2cc(C#N)cc(C(F)(F)F)c2)nc1C [Example 28, Propyl 2-(3-(3-cyano-5-(trifluoromethyl)benzamido)propanamido)-4-methylthiazole-5-carboxylate] | 2240 nM
7 | CCCOC(=O)c1sc(NC(=O)CCNC(=O)c2cc(C(=O)OC)cc(C(C)(C)C)c2)nc1C [Example 29, Propyl 2-(3-(3-(tert-butyl)-5-(methoxycarbonyl)benzamido)propanamido)-4-methylthiazole-5-carboxylate] | 77 nM
8 | CCCOC(=O)c1sc(NC(=O)CCNC(=O)c2cc(C#N)cc(C(=O)OC)c2)nc1C [Example 30, Propyl 2-(3-(3-cyano-5-(methoxycarbonyl)benzamido)propanamido)-4-methylthiazole-5-carboxylate] | 186 nM
9 | Cc1nc(-c2cc(Cl)cc(C(=O)NCCC(=O)Nc3nc(C)c(C(C)(C)C)s3)c2)no1 [Example 31, N-[3-[(5-tert-butyl-4-methyl-thiazol-2-yl)amino]-3-oxo-propyl]-3-chloro-5-(5-methyl-1,2,4-oxadiazol-3-yl)benzamide] | 191 nM
10 | CCCOC(=O)c1sc(NC(=O)CCNC(=O)c2cc(-c3noc(C)n3)cc(C(F)(F)F)c2)nc1C [Example 32, Propyl 4-methyl-2-(3-(3-(5-methyl-1,2,4-oxadiazol-3-yl)-5-(trifluoromethyl)benzamido)propanamido)thiazole-5-carboxylate] | 11 nM
11 | CCCOC(=O)c1sc(NC(=O)CCNC(=O)c2cc(C(=O)OC)cc([N+](=O)[O-])c2)nc1C [Example 33, Propyl 2-[3-[(3-methoxycarbonyl-5-nitro-benzoyl)amino]propanoylamino]-4-methyl-thiazole-5-carboxylate] | 161 nM
12 | CCOC(=O)c1sc(NC(=O)CCNC(=O)c2cccc(-c3nc(C)no3)c2)nc1C [Example 34, Ethyl 4-methyl-2-(3-(3-(3-methyl-1,2,4-oxadiazol-5-yl)benzamido)propanamido)thiazole-5-carboxylate] | 101 nM
13 | Cc1nc(-c2cccc(C(=O)NCCC(=O)Nc3nc(C)c(C(=O)OCC4CC4)s3)c2)no1 [Example 35, Cyclopropylmethyl 4-methyl-2-(3-(3-(5-methyl-1,2,4-oxadiazol-3-yl)benzamido)propanamido)thiazole-5-carboxylate] | 31 nM
14 | CCOC(=O)c1sc(NC(=O)CCNC(=O)c2cccc(-c3noc(CC)n3)c2)nc1C [Example 36, Ethyl 2-(3-(3-(5-ethyl-1,2,4-oxadiazol-3-yl)benzamido)propanamido)-4-methylthiazole-5-carboxylate] | 2100 nM

The next lines start with the values.

Row | IC50 | SMILES
15 | 260 nM | CCOC(=O)c1sc(NC(=O)CCNC(=O)c2cccc(-c3nnc(C)o3)c2)nc1C [Example 37, Ethyl 4-methyl-2-(3-(3-(5-methyl-1,3,4-oxadiazol-2-yl)benzamido)propanamido)thiazole-5-carboxylate]
16 | 27 nM | CCOC(=O)c1sc(NC(=O)CCNC(=O)c2cccc(-c3nnn(C)n3)c2)nc1C [Example 38, Ethyl 4-methyl-2-(3-(3-(2-methyl-2H-tetrazol-5-yl)benzamido)propanamido)thiazole-5-carboxylate]
17 | 8 nM | Cc1nc(NC(=O)CCNC(=O)c2cccc(-c3nnn(C)n3)c2)sc1C(=O)OC(C)(C)C [Example 39, tert-Butyl 4-methyl-2-[3-[[3-(2-methyltetrazol-5-yl)benzoyl]amino]propanoylamino]thiazole-5-carboxylate]
18 | 10 nM | Cc1nc(NC(=O)CCNC(=O)c2cccc(-c3nnn(C)n3)c2)sc1C(=O)OC(C)C [Example 40, Isopropyl 4-methyl-2-[3-[[3-(2-methyltetrazol-5-yl)benzoyl]amino]propanoylamino]thiazole-5-carboxylate]
19 | 184 nM | Cc1nc(NC(=O)CCNC(=O)c2cccc(-c3nnn(C)n3)c2)sc1C(C)(C)C [Example 41, N-[3-[(5-tert-butyl-4-methyl-thiazol-2-yl)amino]-3-oxo-propyl]-3-(2-methyltetrazol-5-yl)benzamide]
20 | 1790 nM | CCOC(=O)c1cccc(C(=O)NCCC(=O)Nc2nc(C)c(C(=O)OCC)s2)c1 [Example 42, Ethyl 2-(3-(3-(ethoxycarbonyl)benzamido)propanamido)-4-methylthiazole-5-carboxylate]
21 | 44 nM | CCOC(=O)c1sc(NC(=O)CCNC(=O)c2cc(C)cc(-c3noc(C)n3)c2)nc1C [Example 43, Ethyl 4-methyl-2-(3-(3-methyl-5-(5-methyl-1,2,4-oxadiazol-3-yl)benzamido)propanamido)thiazole-5-carboxylate]
22 | 281 nM | CCCOC(=O)c1sc(NC(=O)CCNC(=O)c2cc(C(=O)OC)cc(-c3noc(C)n3)c2)nc1C [Example 44, Propyl 2-(3-(3-(methoxycarbonyl)-5-(5-methyl-1,2,4-oxadiazol-3-yl)benzamido)propanamido)-4-methylthiazole-5-carboxylate]
23 | 5 nM | CCOC(=O)c1sc(NC(=O)CCNc2nccc3ccc(-c4noc(C)n4)cc23)nc1C [Example 45, Ethyl 4-methyl-2-[3-[[7-(5-methyl-1,2,4-oxadiazol-3-yl)-1-isoquinolyl]amino]propanoylamino]thiazole-5-carboxylate]
